US20240199605A1, “SMALL MOLECULAR INHIBITORS OF NF-kB INDUCING KINASE” (Janssen Pharmaceutica NV, priority 2019, published 2024)

Tests used:
[1] = test system: p-IKKα levels in L363 (NIK translocated multiple myeloma) cells; experiment: Effect of compounds on p-IKKα levels in L363 cells (AlphaLISA SureFire Ultra); type: cell-based, human; details: Homo sapiens, L-363, 6 h, BAFF stimulated, MG132, 6 h, average of values, read-out: Assay 2 IC50
Summary of the method: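 Inhibition of p-IKKα (Ser176/180) read by AlphaLISA after 6 h, 37 °C compound exposure (11-point 1:3 series, 0.3% DMSO) of L363 cells pre-incubated overnight ± 250 ng/ml BAFF and plated ± BAFF ± 10 μM MG132. Normalised to BAFF/MG132/DMSO and unstimulated controls; IC50 by sigmoidal fitting, duplicates.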

[2] = biological target: recombinant human NF-kappaB-inducing kinase (NIK/MAP3K14) (Homo sapiens (Human), UniProt Q99558); experiment: Inhibition of auto-phosphorylation of recombinant human NIK/MAP3K14 (AlphaScreen); type: biochemical; details: NIK auto-phosphorylation, 5 μM ATP, 1 nM NIK, 2 h at 25° C.; average of values
Summary of the method: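 GST-tagged NIK (1 nM) auto-phosphorylated with 5 μM ATP for 2 h at 25° C. in 50 mM Tris pH 7.5, 5 mM MgCl2, 1 mM EGTA, 1 mM DTT, 0.1 mM Na3VO4, 0.01% Tween 20 (0.7% DMSO). Detected by AlphaScreen via anti-phospho-IKK Ser176/180 antibody; IC50 from sigmoidal fit of % inhibition versus log concentration.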

recombinant human NF-kappaB-inducing kinase (NIK/MAP3K14), sequence (Q99558 whole entry): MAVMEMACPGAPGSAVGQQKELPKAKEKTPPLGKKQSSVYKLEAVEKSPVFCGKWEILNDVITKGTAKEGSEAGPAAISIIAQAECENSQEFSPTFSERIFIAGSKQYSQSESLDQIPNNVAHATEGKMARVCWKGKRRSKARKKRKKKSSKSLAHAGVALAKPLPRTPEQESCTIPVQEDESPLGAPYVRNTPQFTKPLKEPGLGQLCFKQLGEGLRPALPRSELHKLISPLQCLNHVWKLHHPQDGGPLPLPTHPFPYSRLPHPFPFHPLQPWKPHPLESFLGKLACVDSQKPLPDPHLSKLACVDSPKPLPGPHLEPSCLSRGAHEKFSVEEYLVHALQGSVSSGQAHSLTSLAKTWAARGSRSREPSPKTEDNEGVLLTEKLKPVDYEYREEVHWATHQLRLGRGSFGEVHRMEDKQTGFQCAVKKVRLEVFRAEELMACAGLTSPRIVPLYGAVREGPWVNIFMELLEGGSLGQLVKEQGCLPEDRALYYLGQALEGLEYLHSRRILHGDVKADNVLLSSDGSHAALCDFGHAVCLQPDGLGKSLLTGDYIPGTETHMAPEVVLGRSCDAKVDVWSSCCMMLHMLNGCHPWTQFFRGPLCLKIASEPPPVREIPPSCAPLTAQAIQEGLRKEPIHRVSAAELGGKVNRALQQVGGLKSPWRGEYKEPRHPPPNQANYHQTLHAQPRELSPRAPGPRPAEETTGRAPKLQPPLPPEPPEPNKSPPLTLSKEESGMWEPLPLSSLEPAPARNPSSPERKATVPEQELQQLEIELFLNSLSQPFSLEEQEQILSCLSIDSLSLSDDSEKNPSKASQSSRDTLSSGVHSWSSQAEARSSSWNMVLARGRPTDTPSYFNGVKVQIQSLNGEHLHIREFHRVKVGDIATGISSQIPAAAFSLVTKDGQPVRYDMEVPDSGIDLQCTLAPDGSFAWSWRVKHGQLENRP

| Structure (SMILES) | IC50 [1] | IC50 [2] |
| --- | --- | --- |
| Cc1nc(N)c2nc(-c3cccc(C#C[C@]4(O)CCN(C)C4=O)c3)ncc2n1 [Example 14, (R)-3-((3-(8-Amino-6-methylpyrimido[5,4-d]pyrimidin-2-yl)phenyl)ethynyl)-3-hydroxy-1-methylpyrrolidin-2-one] | 18 nM | ≤ 0.5 nM |
| C[C@@](O)(C#Cc1cccc(-c2cnc3ncnc(N)c3c2)c1)c1nccs1 [Example 108, (R)-4-(3-(4-Aminopyrido[2,3-d]pyrimidin-6-yl)phenyl)-2-(thiazol-2-yl)but-3-yn-2-ol] | > 5000 nM | 7.6 nM |
| Cc1nc(N)c2nc(-c3cccc(C#C[C@]4(O)C(=O)N(C)C[C@@H]4C)c3)ccc2n1 (stereo in doubt) [Example 293, (3S,4S*)-3-((3-(4-Amino-2-methylpyrido[3,2-d]pyrimidin-6-yl)phenyl)ethynyl)-3-hydroxy-1,4-dimethylpyrrolidin-2-one] | > 5000 nM | > 5000 nM |
| Cc1nc(N)c2nc(-c3cccc(C#C[C@@](C)(O)c4ncccn4)c3)ccc2n1 [Example 197, (R)-4-[3-(4-Amino-2-methyl-pyrido[3,2-d]pyrimidin-6-yl)phenyl]-2-pyrimidin-2-yl-but-3-yn-2-ol] | 380 nM | 6.3 nM |
| Cc1cc(C#C[C@]2(O)CCc3cccnc32)cc(-c2ncc3ccnc(N)c3n2)c1 [Example 52, (R)-7-[2-[3-(8-Aminopyrido[3,4-d]pyrimidin-2-yl)-5-methyl-phenyl]ethynyl]-5,6-dihydrocyclopenta[b]pyridin-7-ol] | 110 nM | 2.5 nM |
| Cc1nc(N)c2nc(-c3cccc(C#C[C@@](C)(O)c4scnc4C)c3)ccc2n1 [Example 163, (R)-4-(3-(4-Amino-2-methylpyrido[3,2-d]pyrimidin-6-yl)phenyl)-2-(4-methylthiazol-5-yl)but-3-yn-2-ol] | > 5000 nM | 350 nM |
| Cc1cnc(N)c2nc(-c3cccc(C#C[C@]4(O)CCc5cccnc54)c3)ncc12 [Example 62, (R)-7-((3-(8-Amino-5-methylpyrido[3,4-d]pyrimidin-2-yl)phenyl)ethynyl)-6,7-dihydro-5H-cyclopenta[b]pyridin-7-ol] | 22 nM | ≤ 0.5 nM |
| Nc1nccc2cnc(-c3cccc(C#CC4(O)CCCC4)c3)nc12 [Example 33, 1-[2-[3-(8-Aminopyrido[3,4-d]pyrimidin-2-yl)phenyl]ethynyl]cyclopentanol] | 620 nM | 4.5 nM |
| Cc1nc(-c2cccc(C#C[C@]3(O)CCN(C)C3=O)c2)nc2c(N)nccc12 [Example 37, (R)-3-((3-(8-Amino-4-methylpyrido[3,4-d]pyrimidin-2-yl)phenyl)ethynyl)-3-hydroxy-1-methylpyrrolidin-2-one] | 35 nM | 0.6 nM |
| CN1CC[C@@](O)(C#Cc2cccc(-c3ccc4c(c3)c(N)nn4C(=O)OC(C)(C)C)c2)C1=O [Example 169, (R)-tert-Butyl 3-amino-5-[3-[2-(3-hydroxy-1-methyl-2-oxo-pyrrolidin-3-yl)ethynyl]phenyl]indazole-1-carboxylate] | > 5000 nM | 1210 nM |
| Cc1nc(-c2cccc(C#C[C@@]3(O)CCN(C)C3=O)c2)nc2c(N)ncnc12 [Example 5, (S)-3-((3-(8-Amino-4-methylpyrimido[5,4-d]pyrimidin-2-yl)phenyl)ethynyl)-3-hydroxy-1-methylpyrrolidin-2-one] | 1560 nM | 230 nM |
| [2H]c1nc(N)c2nc(-c3cccc(C#C[C@]4(O)C(=O)N(C)[C@H]5C[C@H]54)c3)ccc2n1 [Example 275, (1S,4S,5R)-4-((3-(4-Aminopyrido[3,2-d]pyrimidin-6-yl-2-d)phenyl)ethynyl)-4-hydroxy-2-methyl-2-azabicyclo[3.1.0]hexan-3-one] | > 5000 nM | 300 nM |
| CO[C@@]1(C#Cc2cccc(-c3ccc4ncnc(N)c4n3)c2)CCN(C)C1=O [Example 207, (R)-3-((3-(4-Aminopyrido[3,2-d]pyrimidin-6-yl)phenyl)ethynyl)-3-methoxy-1-methylpyrrolidin-2-one] | > 5000 nM | 180 nM |
| Cc1cc(-c2cccc(C#C[C@]3(O)CCN(C)C3=O)c2)cc2c(N)ncnc12 [Example 110, (R)-3-((3-(4-Amino-8-methylquinazolin-6-yl)phenyl)ethynyl)-3-hydroxy-1-methylpyrrolidin-2-one] | 11 nM | ≤ 0.5 nM |
| CN1CC[C@@](O)(C#Cc2cccc(-c3cc(C4CCOCC4)c4ncnc(N)c4n3)c2)C1=O [Example 255, (R)-3-((3-(4-Amino-8-(tetrahydro-2H-pyran-4-yl)pyrido[3,2-d]pyrimidin-6-yl)phenyl)ethynyl)-3-hydroxy-1-methylpyrrolidin-2-one] | 15 nM | 0.7 nM |
| CN1CC[C@](C#Cc2cccc(-c3ccc4ncnc(N)c4n3)c2)(C(F)F)C1=O [Example 204, (R)-3-((3-(4-Aminopyrido[3,2-d]pyrimidin-6-yl)phenyl)ethynyl)-3-(difluoromethyl)-1-methylpyrrolidin-2-one] | 1060 nM | 21 nM |
| CN1CC[C@@](O)(C#Cc2ccc(OC(F)(F)F)c(-c3ccc4ncnc(N)c4n3)c2)C1=O [Example 271, (R)-3-((3-(4-Aminopyrido[3,2-d]pyrimidin-6-yl)-4-(trifluoromethoxy)phenyl)ethynyl)-3-hydroxy-1-methylpyrrolidin-2-one] | 44 nM | 4.2 nM |
| Cc1ccc(C#C[C@]2(O)CCN(C)C2=O)cc1-c1ncc2ccnc(N)c2n1 [Example 43, (R)-3-((3-(8-Aminopyrido[3,4-d]pyrimidin-2-yl)-4-methylphenyl)ethynyl)-3-hydroxy-1-methylpyrrolidin-2-one] | 60 nM | 0.9 nM |
| CN1CC[C@@](O)(C#Cc2cccc(-c3ccc4ncnc(NCC#N)c4n3)c2)C1=O [Example 240, (R)-2-((6-(3-((3-Hydroxy-1-methyl-2-oxopyrrolidin-3-yl)ethynyl)phenyl)pyrido[3,2-d]pyrimidin-4-yl)amino)acetonitrile] | 570 nM | 21 nM |
| [2H]c1nc(N)c2nc(-c3cc(C#C[C@]4(O)CCN(C)C4=O)ccc3OC)ccc2n1 [Example 160, (R)-3-((3-(4-Aminopyrido[3,2-d]pyrimidin-6-yl-2-d)-4-methoxyphenyl)ethynyl)-3-hydroxy-1-methylpyrrolidin-2-one] | 19 nM | 2.4 nM |
| CN1CC[C@@](O)(C#Cc2cccc(-c3ncc4cc[nH]c(=O)c4n3)c2)C1=O [Example 30, (R)-2-[3-[2-(3-Hydroxy-1-methyl-2-oxo-pyrrolidin-3-yl)ethynyl]phenyl]-7H-pyrido[3,4-d]pyrimidin-8-one] | 1190 nM | 60 nM |
| CN1CC[C@@](O)(C#Cc2cccc(-c3ccc4nc(CF)nc(N)c4n3)c2)C1=O [Example 170, (R)-3-((3-(4-Amino-2-(fluoromethyl)pyrido[3,2-d]pyrimidin-6-yl)phenyl)ethynyl)-3-hydroxy-1-methylpyrrolidin-2-one] | 22 nM | 0.8 nM |
| CCNc1ncnc2ccc(-c3cccc(C#C[C@]4(O)CCN(C)C4=O)c3)nc12 [Example 227, (R)-3-((3-(4-(Ethylamino)pyrido[3,2-d]pyrimidin-6-yl)phenyl)ethynyl)-3-hydroxy-1-methylpyrrolidin-2-one] | 540 nM | 23 nM |
| CN1CC[C@@](O)(C#Cc2cccc(-c3cc(C4CCC4)c4ncnc(N)c4n3)c2)C1=O [Example 309, (R)-3-((3-(4-Amino-8-cyclobutylpyrido[3,2-d]pyrimidin-6-yl)phenyl)ethynyl)-3-hydroxy-1-methylpyrrolidin-2-one] | 9.7 nM | ≤ 0.5 nM |
| CN1CC[C@@](O)(C#Cc2cccc(-c3cc(C#N)c4ncnc(N)c4c3)c2)C1=O [Example 126, (R)-4-Amino-6-(3-((3-hydroxy-1-methyl-2-oxopyrrolidin-3-yl)ethynyl)phenyl)quinazoline-8-carbonitrile] | 820 nM | 0.9 nM |
| CN1CC[C@@](O)(C#Cc2cccc(-c3cc(-c4ccco4)c4ncnc(N)c4n3)c2)C1=O [Example 312, (R)-3-((3-(4-Amino-8-(furan-2-yl)pyrido[3,2-d]pyrimidin-6-yl)phenyl)ethynyl)-3-hydroxy-1-methylpyrrolidin-2-one] | 11 nM | 0.8 nM |
| CN1CC[C@@](O)(C#Cc2cccc(-c3ccc4nc(CO)nc(N)c4n3)c2)C1=O [Example 173, (R)-3-((3-(4-Amino-2-(hydroxymethyl)pyrido[3,2-d]pyrimidin-6-yl)phenyl)ethynyl)-3-hydroxy-1-methylpyrrolidin-2-one] | 180 nM | 12 nM |
| [2H]C([2H])([2H])N1CCC(O)(C#Cc2cccc(-c3ncc4ccnc(N)c4n3)c2)C1=O (stereo in doubt) [Example 66, (R)-3-[2-[3-(8-Aminopyrido[3,4-d]pyrimidin-2-yl)phenyl]ethynyl]-3-hydroxy-1-(trideuteriomethyl)pyrrolidin-2-one] | 4.5 nM | ≤ 0.5 nM |
| CN1CC[C@@](O)(C#Cc2cccc(-c3ccc4ncnc(N5CC(F)(F)C5)c4n3)c2)C1=O [Example 232, (R)-3-((3-(4-(3,3-Difluoroazetidin-1-yl)pyrido[3,2-d]pyrimidin-6-yl)phenyl)ethynyl)-3-hydroxy-1-methylpyrrolidin-2-one] | 210 nM | 5.7 nM |
